Literature values as cited in patent US9211237B2, “Film foaming hydroalcoholic foam” (STIEFEL RESEARCH AUSTRALIA PTY LTD, priority 2003, dated 2015).

Details: UV absorber

| SMILES | maximum absorption |
| --- | --- |
| CCCCC(CC)COC(=O)C=Cc1ccc(OC)cc1 (centres unmarked) [Parsol MCX, octinoxate] | 308 nm |
| COc1ccc(C(=O)CC(=O)c2ccc(C(C)(C)C)cc2)cc1 [Parsol 1789, butyl methoxydibenzolymethane] | ~360 nm |
